Assay results reported in patent US11643655B2, “Methods for intracellular delivery and enhanced gene targeting” (CITY OF HOPE, priority 2016, dated 2023).
Where “and” joins values, the source holds several entries; their conditions need not be identical. Equal values may be shown once. Entries after “also recorded” stand apart in the source; their conditions may differ. Read-outs that look alike come from different tables or passages of the source. l = locked nucleic acid (LNA); d = 2'-deoxy (DNA)

Legend:
[1] = system: HeLa EGFP-654 cells; assay: SSO-654-mediated EGFP expression (splice switching) in HeLa EGFP-654 cells; flow cytometry, Western blot, microscopy; format: cell-based, human
[2] = cited from earlier work
[3] = system: PKR; assay: PKR expression by real-time PCR (cellular stress response) in HeLa-GFP-654 cells; format: cell-based, human
[4] = system: β-catenin; format: cell-based, human
[5] = system: HeLa EGFP-654 cells; assay: Cell growth and proliferation, SRB staining; conditions: two days
[6] = system: HeLa-EGFP-654 and LNCaP cells; format: cell-based, human
[7] = cited from earlier work; remark: listed apart in the source
[8] = oligonucleotides delivered by gymnosis; cited from earlier work
[9] = system: AR mRNA; assay: AR mRNA RT-PCR in LNCaP cells; format: cell-based, human; conditions: 1 μM AR-ASO with 5 mM NH4^+, 24 hr, p<0.01
Protocol: Values were normalized to GAPDH mRNA expression and expressed as the mean±SD, n=3. **p<0.01, Students t-test.
RNA was extracted from cells using RNA-STAT 60 (AMS Biotechnology, Abingdon, UK) as recommended by the manufacturer. First-strand cDNA was synthesized with the Super-Script® III First-Strand Synthesis System Kit (Invitrogen, Carlsbad, Calif.). PCR was performed with Power SYBR GREEN PCR Master Mix (Thermo Fisher Scientific, Waltham, Mass.).

[10] = system: androgen receptor (AR); assay: ASO silencing of AR protein expression, Western blot; format: cell-based, human; conditions: LNCaP cells; for reduction in AR protein expression: three days
Protocol: Cells were harvested with trypsin digestion and washed once with PBS. Cell pellets were lysed in cold RIPA buffer containing protease inhibitors. Cellular RIPA lysates were sonicated for 2 seconds and then rested on ice for 5 min. Cell debris was removed by centrifugation at 12,000×g for 10 min at 4° C. Protein concentrations were determined using the Pierces BCA Protein Assay kit (Thermo Fisher Scientific, Waltham, Mass.). Aliquots of cell extracts containing 30-40 μg of protein were resolved by SDS-PAGE gel electrophoresis, and then transferred to PVDF membranes. After treatment with the appropriate primary and secondary antibodies, enhanced chemiluminescence was performed. Protein signals on the blot were quantified with the Image J program and protein expression was normalized to control=100%.
Protein expression was quantified with ImageJ.

[11] = system: BCL-2; format: cell-based, human
[12] = system: HeLa EGFP-654 cells
[13] = system: eGFP mRNA; format: cell-based, human
[14] = system: HDAC-2 mRNA; format: cell-based, human
[15] = system: Malat-1; format: cell-based, human
[16] = system: CDR1; format: cell-based, human

O=C1Nc2cc(Br)ccc2/C1=C1/Nc2ccccc2/C1=N\O [6BIO]
frequency of splice switching (correctly spliced eGFP expression) [1]: increased frequency of splice switching

Nc1c(Br)cc(Br)cc1CN[C@H]1CC[C@H](O)CC1 [Ambroxol]
SSO-654 activity (EGFP MFI) [1]: significantly enhanced SSO-654 activity
pKa [2]: 9.1

OO [H2O2, hydrogen peroxide]
PKR activation / expression ([3]; oligonucleotide (SSO) combined with the treatment): increasing PKR expression
frequency of splice switching (correctly spliced eGFP expression) [1]: increased frequency of splice switching
oligonucleotide (SSO) function, flow cytometry [1]: able to increase oligonucleotide function

Cl.N [NH4^+, Ammonium chloride]
increase of β-Cat-ASO efficacy [4]: approximately two fold
PKR activation / expression [3]: does not seem to activate the stress gene response
effect on cell growth ([5]; NH4^+ alone 1 mM-2 mM): did not affect the growth
inhibition of cell growth ([5]; NH4^+ alone 5 mM, normalized to non-treated controls): about 15%
activity of lipofected SSO-654 (EGFP MFI) [1]: did not enhance the activity of the SSO-654
increase of SSO-654-induced EGFP protein expression [1]: more than two-fold
increase of SSO-654 function and EGFP expression compared to SSO-654 alone [1]: a minimum of five fold
increase of percentage of EGFP positive cells and EGFP protein expression compared to SSO-654 alone [1]: nearly seven-fold
increase of percentage of EGFP-positive cells, NH4^+/SSO-654 vs SSO-654 [1]: nearly four-fold
oligonucleotide (SSO) function, flow cytometry [1]: able to increase oligonucleotide function
upregulation of SSO-654-mediated EGFP expression [1]: three- to five-fold
cellular uptake of Cy5-ASO (Cy5 MFI) [6]: did not significantly affect the cellular uptake

CCC(=O)N1CC(=O)Nc2ccc(Br)cc2C1c1ccccc1 (stereo not drawn) [Retro-1]
water solubility [7]: poorly water-soluble
optimal concentration for enhancing SSO and ASO efficacy [8]: 50 to 100 µM

CC(=O)O.N [ammonium acetate]
effect on SSO-654-mediated EGFP expression compared with NH4^+ [1]: comparable effects

NC1CCCCC1 [cyclohexylamine]
SSO-654 activity (EGFP MFI) [1]: significantly enhanced SSO-654 activity

CCCCCCCC/C=C\CCCCCCCC(=O)O [oleic acid]
SSO-654 activity (EGFP MFI) [1]: significantly enhanced SSO-654 activity

AR-ASO: Phosphorothioate LNA gapmer ASO targeting Androgen Receptor, 5′-ACCaagtttcttcAGC-3′ (SEQ ID NO: 6) (antisense ACCAAGTTTCTTCAGC; sugars from the 5' end l3 d10 l3, all phosphorothioate, methylation of C not given here)
reduction of AR mRNA expression compared with the AR-ASO alone [9]: about 40%
AR reduction, dose response ([10]; 0.25 μM AR-ASO with 5 mM NH4^+ vs 1 μM AR-ASO alone): greater AR reduction than 1 μM AR-ASO alone
reduction in AR protein expression ([10]; 1 μM AR-ASO alone): 40%
reduction in AR protein expression ([10]; 1 μM AR-ASO with 5 mM NH4^+): 80%
inhibition of NH4^+ and SSO-654-mediated EGFP expression by a second ASO [1]: only slight or no inhibition

BCL2-ASO: Phosphorothioate LNA gapmer ASO targeting BCL-2, 5′-^mCTcccagcgtgcg^mC^mCa-3′ (SEQ ID NO: 3)
BCL2 silencing (BCL-2 protein expression) [11]: 65%
BCL-2 protein expression [11]: nearly completely depleted BCL-2 protein expression; also recorded: Some silencing of the BCL-2 protein expression
depletion of BCL-2 protein expression [11]: 98% and 70%
effect of BCL2-ASO on SSO-654 activity and EGFP expression [1]: diminished
effect of BCL2-ASO on SSO-654 function [1]: did not affect SSO-654 function

arsenic trioxide [As III]
β-Cat-ASO activity (β-catenin protein) [4]: did not significantly increase
PKR activation / expression [3]: PKR is activated
cell viability [12]: No significant changes
cytoplasmic oligonucleotide function (eGFP mRNA silencing by ON-eGFP) [13]: some loss of oligonucleotide function
expression of HDAC-2 mRNA [14]: did not significantly change
BCL2-ASO activity (BCL-2 protein) [11]: did not significantly increase
Malat-1 gene expression [15]: silenced as a function of increasing As III concentrations
frequency of splice switching (correctly spliced eGFP expression) [1]: increased frequency of splice switching
upregulation of SSO-654-mediated EGFP expression [1]: three- to five-fold
CDR-1 gene expression [16]: silenced as a function of increasing As III concentrations
oligonucleotide uptake (Cy5-ON by gymnosis) [6]: No significant changes

β-Cat-ASO: Phosphorothioate LNA gapmer ASO targeting β-catenin, 5′-CCAtcttgtgatcCAT-3′ (SEQ ID NO: 5) (antisense CCATCTTGTGATCCAT; sugars from the 5' end l3 d10 l3, all phosphorothioate, methylation of C not given here)
β-catenin gene expression [4]: nearly eliminated β-catenin gene expression
